Measurements published in US4301313A, “Halogenated ethynyl biphenyls” (Eli-Lilly and Company, priority 1974, dated 1981).

Assays:
[1] = analgesic activity, acetic acid-induced writhing; format: in vivo, mouse (albino male); details: mouse, p.o., dose reducing writhing frequency by 50%; 30, 90, 180 minutes after administration
Experimental: Representative compounds were also evaluated for analgesic activity. The evaluation was conducted by using acetic acid-induced writhing in mice as the pain model. Clinically effective analgesis are effective when tested in this model: see Koster et al., "Acetic Acid for Analgesic Screening," 18 Fed. Proc. 412 (1959).
In a method similar to that reported by Koster et al., standard strain albino male mice weighing 20-22 grams were fasted overnight. The respective compound or vehicle (as control) was administered by gastric lavage (p.o.). Each compound was administered in an aqueous suspension of 1% methylcellulose in water. […] At 30, 90, and 180 minutes after administration, writhing was induced by the intraperitoneal administration of 55 mg./kg. of acetic acid (0.55%). Each treatment group consisted of 5 mice and separate groups were examined at each observation time. The total number of writhes for the treatment group were counted in a 10-minute observation period starting 5 minutes after the acetic acid administration. The treatment totals were compared to controls and a percent inhibition calculated as follows: [formula] […] An ED50, which represented the dose that would reduce the writhing frequency by 50%, was estimated from a dose-reponse curve of three or more points. A dose range was reported if only two points were availale for the dose response curve and they bracketed the 50% level. If data was available at 100 mg./kg., only, then the estimated ED50 was reported simply as less than 100 (<100).

[2] = ultraviolet-induced erythema blocking test, oral (modified Winder method); format: in vivo, guinea pig (male albino); details: Cavia porcellus, guinea pig, weighted scores 1.0-2.5 h after UV, dose which provides 50% inhibition
Experimental: The compounds of the present invention were evaluated for anti-inflammatoryactivity by the ultraviolet-induced erythema blocking test. The test procedures were a modification of the Winder method (Winder, C. V.; Wax, J.; Burr, V.; Been, M.; and Posiere, C. E.: A Study of Pharmacological Influences on Ultraviolet Erythema in Guinea Pigs. Arch. Int. Pharmacodyn. 116: 261, 1958). Male albino guinea pigs weighing 240-300 gm. were used. The hair on the back was clipped and chemically depilated 15-18 hours before each experiment. The animals were fasted overnight, and on the day of the experiment, were randomized and placed in clear plastic partitioned holders 10×20 cm. wide and 15 cm. high.
The compounds to be tested were suspended in 1% methyl cellulose in water, utilizing a tissue homogenizer. The suspensions were administered orally in a volume of 2.0 ml./kg. of body weight. Control animals received an equal amount of the vehicle.
The source of ultraviolet light was a Hanovia lamp (Kromayer-Model 10). A notebook reinforcement ring was placed upon the lens of the lamp to provide an area of contrast for grading purposes. The lens was then placed in contact with the skin of the guinea pig's back. Exposure time to UV was for a period of 4 seconds. Beginning one hour after exposure and thereafter at half-hour intervals for another 11/2 hours, the degree of resulting erythema was graded by an arbitrary scoring system based upon the degree of contrast and redness formed. Anti-inflammatory agents delay the development of the erythema and have their greatest effect at the initial grading periods. The scores were, therefore, weighted by factors of 4, 3, 2, and 1 at the 1.0, 1.5, 2.0, and 2.5 hour scoring times, respectively. The erythema was graded as follows:
Total scores from each treatment group of four guinea pigs were compared to the scores of the control group. The percent inhibition was calculated as follows: [formula] In the case of compounds showing inhibition, retesting was carried out at a plurality of doses to enable calculation of an ED50 for each such compound. "ED50 " designates that dose which provides 50% inhibition. Calculation of the ED50 was either by a standard linear regression method or by estimation from a dose-response curve of three or more points. The compounds so tested and their ED50 s were as follows: […]

[3] = carrageenin-induced hind paw inflammation; format: in vivo; details: Rattus norvegicus
Experimental: Representative compounds were also evaluated for anti-inflammatory activity in the test method described by C. A. Winter at 111 Proc. Soc. Exp. Biol. Med., 544 (1962). In this method, inflammation is created by injecting carrageenin into the hind paw of rats. Test compounds are administered prior to injection to determine percent inhibition of the subsequent inflammation, in comparison with control animals.

C#Cc1ccc(-c2ccccc2F)cc1 [(4-(2-fluorophenyl)phenyl)acetylene]
Estimated ED50 [1]: 20 mg/kg
ED50 [2]: 0.05 mg/kg
inhibition in vivo at 0.3 mg/kg ([3]; 0.3 mg./kg.): 21%
inhibition in vivo at 0.5 mg/kg ([3]; 0.5 mg./kg.): 6%
inhibition in vivo at 1.5 mg/kg ([3]; 1.5 mg./kg.): 29%
inhibition in vivo at 2.5 mg/kg ([3]; 2.5 mg./kg.): 35%
inhibition in vivo at 5 mg/kg ([3]; 5 mg./kg.): 43%
inhibition in vivo at 15 mg/kg ([3]; 15 mg./kg.): 56%
inhibition in vivo at 25 mg/kg ([3]; 25 mg./kg.): 65%
inhibition in vivo at 50 mg/kg ([3]; 50 mg./kg.): 57%
